# Source: ChEMBL document CHEMBL1201862, “PubChem BioAssay data set” (2004)
# Active and inactive are the calls of the source. Cut-off read from the data, not from the text of the source, for most assays here: active = IC50 of 10 µM or less and inactive = more.
# What was measured:
# Type in all cases: functional
# [1] = target: DNA dC->dU-editing enzyme APOBEC-3G (Homo sapiens, UniProt Q9HC16); test: inhibition of APOBEC3G ssDNA deamination – biochemical, fluorescence, single-stranded DNA substrate, SAR follow-up (AID 602136); details: read-out: IC50_Mean
# [2] = target: DNA dC->dU-editing enzyme APOBEC-3A (Homo sapiens, UniProt P31941); test: SAR analysis of small molecule inhibitors of APOBEC3A DNA Deaminase via a fluorescence-based single-stranded DNA deaminase assay.; details: read-out: IC50_Mean
# [3] = target: DNA (cytosine-5)-methyltransferase 1 (Homo sapiens, UniProt P26358); test: inhibition of DNA methylation by DNMT1 – biochemical, fluorescent molecular beacon, confirmation (AID 602386)
# Sequence of DNA (cytosine-5)-methyltransferase 1 (P26358 whole entry): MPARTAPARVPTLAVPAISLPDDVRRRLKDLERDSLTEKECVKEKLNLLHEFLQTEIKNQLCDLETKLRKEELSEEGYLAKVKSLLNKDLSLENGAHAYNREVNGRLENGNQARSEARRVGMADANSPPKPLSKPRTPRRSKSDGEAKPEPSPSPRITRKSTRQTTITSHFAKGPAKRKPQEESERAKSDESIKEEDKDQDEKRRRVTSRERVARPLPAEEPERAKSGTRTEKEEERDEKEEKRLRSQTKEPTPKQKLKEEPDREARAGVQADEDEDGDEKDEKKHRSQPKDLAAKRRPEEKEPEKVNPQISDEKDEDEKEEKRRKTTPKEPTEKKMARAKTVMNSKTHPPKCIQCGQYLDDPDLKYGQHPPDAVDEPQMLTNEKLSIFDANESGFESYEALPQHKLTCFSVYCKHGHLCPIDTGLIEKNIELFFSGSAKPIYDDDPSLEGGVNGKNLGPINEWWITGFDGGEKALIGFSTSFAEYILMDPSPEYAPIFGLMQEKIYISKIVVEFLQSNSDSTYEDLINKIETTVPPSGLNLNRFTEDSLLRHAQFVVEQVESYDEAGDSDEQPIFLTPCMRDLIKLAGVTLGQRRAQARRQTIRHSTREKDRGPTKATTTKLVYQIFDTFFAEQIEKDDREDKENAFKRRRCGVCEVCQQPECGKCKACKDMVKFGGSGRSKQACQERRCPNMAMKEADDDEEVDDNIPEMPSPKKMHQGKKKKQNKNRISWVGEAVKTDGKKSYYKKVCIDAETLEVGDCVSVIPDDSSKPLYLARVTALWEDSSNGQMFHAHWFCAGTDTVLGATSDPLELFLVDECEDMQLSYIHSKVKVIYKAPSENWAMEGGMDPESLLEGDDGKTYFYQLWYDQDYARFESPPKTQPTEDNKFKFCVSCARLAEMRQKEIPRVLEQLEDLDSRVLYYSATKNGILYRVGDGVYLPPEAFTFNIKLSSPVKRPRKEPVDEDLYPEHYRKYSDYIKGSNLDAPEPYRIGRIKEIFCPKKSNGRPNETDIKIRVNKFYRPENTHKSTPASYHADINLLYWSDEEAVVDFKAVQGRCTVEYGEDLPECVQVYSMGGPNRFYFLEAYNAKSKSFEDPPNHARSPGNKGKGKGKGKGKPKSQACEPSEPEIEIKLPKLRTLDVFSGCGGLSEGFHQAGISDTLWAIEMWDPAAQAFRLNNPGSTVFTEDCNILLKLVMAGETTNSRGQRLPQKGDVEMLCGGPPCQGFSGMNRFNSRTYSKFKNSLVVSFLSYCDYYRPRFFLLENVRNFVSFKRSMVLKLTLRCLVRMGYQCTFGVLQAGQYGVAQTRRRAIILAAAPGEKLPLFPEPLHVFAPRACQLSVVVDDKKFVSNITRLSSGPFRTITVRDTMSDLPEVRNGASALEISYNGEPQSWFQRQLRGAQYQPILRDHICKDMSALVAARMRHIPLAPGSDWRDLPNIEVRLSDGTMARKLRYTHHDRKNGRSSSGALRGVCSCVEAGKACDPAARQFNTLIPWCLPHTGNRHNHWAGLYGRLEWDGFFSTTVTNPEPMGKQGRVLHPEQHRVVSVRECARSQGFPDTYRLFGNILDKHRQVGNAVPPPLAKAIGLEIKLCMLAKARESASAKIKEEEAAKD
# Sequence of DNA dC->dU-editing enzyme APOBEC-3A (P31941 whole entry): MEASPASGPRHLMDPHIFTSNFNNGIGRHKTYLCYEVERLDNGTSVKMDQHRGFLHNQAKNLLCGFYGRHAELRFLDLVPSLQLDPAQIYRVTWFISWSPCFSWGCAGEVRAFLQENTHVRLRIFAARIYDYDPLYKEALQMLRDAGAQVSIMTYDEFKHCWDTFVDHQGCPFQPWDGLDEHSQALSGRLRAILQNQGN
# Sequence of DNA dC->dU-editing enzyme APOBEC-3G (Q9HC16 whole entry): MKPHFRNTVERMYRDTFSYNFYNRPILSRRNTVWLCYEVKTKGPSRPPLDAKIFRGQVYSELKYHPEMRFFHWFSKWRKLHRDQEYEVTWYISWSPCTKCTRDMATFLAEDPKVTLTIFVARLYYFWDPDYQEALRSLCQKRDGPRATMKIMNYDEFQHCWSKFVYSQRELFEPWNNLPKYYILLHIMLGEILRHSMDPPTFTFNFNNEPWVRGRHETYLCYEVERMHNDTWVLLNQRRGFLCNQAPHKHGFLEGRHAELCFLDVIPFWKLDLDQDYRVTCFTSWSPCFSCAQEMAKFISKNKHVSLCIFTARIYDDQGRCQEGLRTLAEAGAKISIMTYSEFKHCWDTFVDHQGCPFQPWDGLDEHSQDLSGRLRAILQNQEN
IC50 [3],Structure (SMILES),IC50 [1],IC50 [2]
–,Cc1ccc(Cl)c2c1N[C@@H](c1ccccc1Br)[C@H]1CC=C[C@@H]21,> 99 µM (inactive),> 99 µM (inactive)
–,CCc1ccc(Nc2nc(Nc3ccc(OC)cc3)nc(N3CCCC3)n2)cc1,> 99 µM (inactive),> 99 µM (inactive)
> 99 µM (inactive),Cc1ccc2cc3c(N)c4c(C)ccc(C)c4nc3nc2c1,–,–
